Results reported in patent US8426429B2, “2-amino-quinazoline derivatives useful as inhibitors of β-secretase (BACE)” (Jansssen Pharmaceutica N.V., priority 2004, dated 2013).
Several values for one entry are separate records, joined by “and”; a condition that tells them apart may be missing. Equal entries are not always repeated.

Target: T1, β-secretase (BACE) (Homo sapiens, UniProt P56817)
T1 construct: purchased Panvera
Assay: BACE FS1 % Inhibition Assay
Assay type: biochemical
How it was run: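 Percent inhibition per compound concentration was referenced to vehicle-treated enzyme and no-enzyme wells. Enzyme at a 4 μg/mL working stock plus compound was mixed for 20 min at room temperature before the FS1 substrate (300 μg/mL working stock) was added for a 1 h room-temperature reaction.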

T1 sequence (P56817 46-501): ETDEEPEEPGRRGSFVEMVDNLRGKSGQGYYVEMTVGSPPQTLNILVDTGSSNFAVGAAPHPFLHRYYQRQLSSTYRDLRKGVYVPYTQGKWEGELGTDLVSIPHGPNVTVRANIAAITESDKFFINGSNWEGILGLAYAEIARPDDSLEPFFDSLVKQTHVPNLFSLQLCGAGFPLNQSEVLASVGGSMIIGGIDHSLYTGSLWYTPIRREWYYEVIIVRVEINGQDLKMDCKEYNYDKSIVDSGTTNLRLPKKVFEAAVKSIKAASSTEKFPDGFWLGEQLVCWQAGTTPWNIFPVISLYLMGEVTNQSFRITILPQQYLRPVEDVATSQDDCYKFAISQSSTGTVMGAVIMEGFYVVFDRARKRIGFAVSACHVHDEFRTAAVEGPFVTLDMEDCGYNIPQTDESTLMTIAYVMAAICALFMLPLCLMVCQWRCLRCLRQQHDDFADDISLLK

| SMILES | % Inhibition (FS) (0.3 μM test compound) [%] | % Inhibition (FS) (1 μM test compound) [%] | % Inhibition (FS) (3 μM test compound) [%] | % Inhibition (FS) (0.3 μM compound, FS1 substrate) [%] | % Inhibition (FS) (1 μM compound, FS1 substrate) [%] | % Inhibition (FS) (3 μM compound, FS1 substrate) [%] | % Inhibition (FS) (10 μM test compound) [%] | % Inhibition (FS) (3 μM test compound, 3 µM) |
| --- | --- | --- | --- | --- | --- | --- | --- | --- |
| NC(=O)c1ccccc1-c1ccc2c(c1)CN(CCNC(=O)C1CCCCC1)C(N)=N2 [Compound 543] | <30 | <30 | <30 | – | – | – | – | – |
| Cc1cc(C)cc(Sc2ccc3c(c2)CN(Cc2cccc(C(=O)N(C)C4CCCCC4)c2)C(N)=N3)c1 [Compound 409] | <30 | <30 | 72 | – | – | – | – | – |
| COc1ccccc1Oc1ccc2c(c1)CN(Cc1cccc(C(=O)N(C)C3CCCCC3)c1)C(N)=N2 [Compound 232] | <30 | <30 | 31 | – | – | – | – | – |
| CCC[C@H](CNC(=O)CCC(C)C)N1Cc2cc(Oc3ccccc3)ccc2N=C1N [Compound 603] | 101 | 114 | 122 | – | – | – | – | – |
| CCCC=Cc1ccc2c(c1)CN(CCNC(=O)c1cccc(C#N)c1)C(N)=N2 [Compound 568] | <30 | <30 | <30 | – | – | – | – | – |
| CN(Cc1csc(-c2ccccc2)n1)C(=O)CC[C@@H](C1CCCCC1)N1Cc2cc(-c3ccccc3F)ccc2N=C1N [Compound 722] | – | – | – | 35 | 35 | 78 | – | – |
| COC1CCCC(C(=O)NCCN2Cc3cc(C4=CCCC4)ccc3N=C2N)C1 (centres unmarked) [Compound 706] | – | – | – | <30 | <30 | <30 | – | – |
| CC(C)(C)OC(=O)Nc1cccc(CN2Cc3cc(Oc4ccccc4)ccc3N=C2N)c1 [Compound 224] | <30 | <30 | <30 | – | – | – | – | – |
| NC1=Nc2ccc(-c3cnc4ccccc4c3)cc2CN1CCNC(=O)C1CCC1 [Compound 670] | – | – | – | <30 | <30 | 44 | – | – |
| CN(C(=O)c1cccc(CN2Cc3cc(Nc4ccc(N5CCOCC5)cc4)ccc3N=C2N)c1)C1CCCCC1 [Compound 439] | <30 | <30 | <30 | – | – | – | – | – |
| COc1ccccc1-c1ccc2c(c1)CN(C(CCC(=O)N(C)C1CCCCC1)C1CCCCC1)C(N)=N2 (centres unmarked) [Compound 227] | 86 | 109 | 116 | – | – | – | – | – |
| NC1=Nc2ccc(Oc3ccccc3)cc2CN1CCCCNC(=O)C1CCCCC1 [Compound 115] | – | – | 40 | – | – | – | 105 | – |
| NC1=Nc2ccc(-c3ccc4ccccc4c3)cc2CN1CCNC(=O)C1CCC1 [Compound 663] | – | – | – | <30 | <30 | <30 | – | – |
| CC(=O)Nc1ccc(C(=O)NCCN2Cc3cc(-c4cccc(CO)c4)ccc3N=C2N)cc1 [Compound 593] | <30 | <30 | <30 | – | – | – | – | – |
| COc1cccc(F)c1-c1ccc2c(c1)CN(CCNC(=O)C1CCC(C(F)(F)F)CC1)C(N)=N2 (centres unmarked) [Compound 700] | – | – | – | <30 | 36 | 85 | – | – |
| Cc1ccccc1-c1ccc2c(c1)CN(CCNC(=O)C(C)(C)C)C(N)=N2 [Compound 660] | 63 | 86 | 105 | – | – | – | – | – |
| CN(C(=O)CCC(c1ccc(Cl)cc1)N1Cc2cc(Oc3ccccc3)ccc2N=C1N)C1CCCCC1 (centres unmarked) [Compound 297] | <30 | 76 | 109 | – | – | – | – | – |
| COc1ccc(Sc2ccc3c(c2)CN(Cc2cccc(C(=O)N(C)C4CCCCC4)c2)C(N)=N3)cc1 [Compound 410] | <30 | 39 | 50 | – | – | – | – | – |
| NC1=Nc2ccc(Oc3ccccc3)cc2CN1C(CNC(=O)C1CCCCC1)Cc1ccc(O)cc1 (centres unmarked) [Compound 614] | <30 | <30 | <30 | – | – | – | – | – |
| NC1=Nc2ccc(-c3ccccc3)cc2CN1CCNC(=O)C1CCC(C(F)(F)F)CC1 (centres unmarked) [Compound 701] | – | – | – | <30 | <30 | 54 | – | – |

| SMILES | % Inhibition (FS) (0.3 μM test compound) [%] | % Inhibition (FS) (1 μM test compound) [%] | % Inhibition (FS) (3 μM test compound) [%] | % Inhibition (FS) (0.3 μM compound, FS1 substrate) [%] | % Inhibition (FS) (1 μM compound, FS1 substrate) [%] | % Inhibition (FS) (3 μM compound, FS1 substrate) [%] | % Inhibition (FS) (10 μM test compound) [%] | % Inhibition (FS) (3 μM test compound, 3 µM) |
| --- | --- | --- | --- | --- | --- | --- | --- | --- |
| CN(C(=O)c1cccc(CN2Cc3cc(Oc4ccccc4-c4ccccc4)ccc3N=C2N)c1)C1CCCCC1 [Compound 234] | <30 | 57 | 43 | – | – | – | – | – |
| NC1=Nc2ccc(-c3cccc(CO)c3)cc2CN1CCNC(=O)Cc1ccccc1 [Compound 599] | <30 | <30 | 65 | – | – | – | – | – |
| C=CCc1cccc(C)c1Oc1ccc2c(c1)CN(Cc1cccc(C(=O)N(C)C3CCCCC3)c1)C(N)=N2 [Compound 480] | <30 | <30 | 38 | – | – | – | – | – |
| CC(C)[C@@H](CCC(=O)N(C)C1CCCCC1)N1Cc2cc(Oc3ccccc3)ccc2N=C1N [Compound 444] | <30 | <30 | 30 | – | – | – | – | – |
| CN(CC(=O)O)C(=O)CCC(C1CCCCC1)N1Cc2cc(Oc3ccccc3)ccc2N=C1N (centres unmarked) [Compound 767] | – | – | – | <30 | 71 | – | – | – |
| CCCC(CCCC(=O)NC1CCCCCC1)N1Cc2cc(Oc3ccccc3)ccc2N=C1N (centres unmarked) [Compound 137] | – | – | 82 | – | – | – | 107 | – |
| CCCCC(CC)C(=O)NCCN1Cc2cc(-c3ccc4ccccc4c3)ccc2N=C1N (centres unmarked) [Compound 669] | – | – | – | <30 | <30 | 32 | – | – |
| CC(C)(C)OC(=O)NCc1cccc(CN2Cc3cc(Oc4ccccc4)ccc3N=C2N)c1 [Compound 315] | <30 | <30 | 33 | – | – | – | – | – |
| CN(Cc1cc(-c2ccccc2)on1)C(=O)CC[C@@H](C1CCCCC1)N1Cc2cc(-c3ccccc3F)ccc2N=C1N [Compound 724] | – | – | – | 38 | <30 | 65 | – | – |
| Cc1cc(C(=O)NCCN2Cc3cc(-c4cccc(C(F)(F)F)c4)ccc3N=C2N)c(C)o1 [Compound 590] | <30 | <30 | <30 | – | – | – | – | – |
| COc1ccccc1-c1ccc2c(c1)CN(CCNC(=O)C1CCN(C(C)=O)CC1)C(N)=N2 [Compound 491] | <30 | <30 | – | – | – | – | – | 44% and <30% |
| COc1cccc(C(=O)NCCN2Cc3cc(Oc4ccccc4)ccc3N=C2N)c1 [Compound 217] | <30 | <30 | 56 | – | – | – | – | – |
| CCCC(=O)NCCN1Cc2cc(-c3ccc4ccccc4c3)ccc2N=C1N [Compound 666] | – | – | – | 37 | <30 | <30 | – | – |
| CC1CCC(NC(=O)c2cccc(CN3Cc4cc(Oc5ccccc5)ccc4N=C3N)c2)CC1 (centres unmarked) [Compound 213] | <30 | <30 | <30 | – | – | – | – | – |
| COC(=O)C1CCCC(N(C)C(=O)CCC(C2CCCCC2)N2Cc3cc(Oc4ccccc4)ccc3N=C2N)C1 (mixture of isomers) [Compound 777] | – | – | – | 38 | 97 | – | – | – |
| CSc1ccccc1Oc1ccc2c(c1)CN(Cc1cccc(C(=O)N(C)C3CCCCC3)c1)C(N)=N2 [Compound 474] | <30 | <30 | <30 | – | – | – | – | – |
| Cc1cc(C(=O)NCCN2Cc3cc(-c4cccc(CO)c4)ccc3N=C2N)c(C)o1 [Compound 589] | <30 | <30 | <30 | – | – | – | – | – |
| CC(C)CC(=O)NC[C@@H](C(C)C)N1Cc2cc(Oc3ccccc3)ccc2N=C1N [Compound 563] | 101 | 119 | 127 | – | – | – | – | – |
| CS(=O)(=O)Nc1ccccc1-c1ccc2c(c1)CN(CCNC(=O)C1CCCCC1)C(N)=N2 [Compound 539] | <30 | <30 | <30 | – | – | – | – | – |
| COc1cccc(C)c1Oc1ccc2c(c1)CN(Cc1cccc(C(=O)N(C)C3CCCCC3)c1)C(N)=N2 [Compound 468] | <30 | <30 | <30 | – | – | – | – | – |
